Source: the OPERA property sets (Mansouri et al. 2018)
Where a SMILES comes first, the peptide text is derived from it.

SMILES	logP
CN(C)CCOC(=O)c1ccc(C(F)(F)F)cc1	2.88
CC(C)=CCCC(C)=CCCC(C)(C)O	4.54
O=C(NC(Cc1c[nH]c2ccccc12)C(=O)O)OCc1ccccc1 (stereo not given)	3.2
COc1ccc(C2Cc3ccccc3N(CCN(C)C)C(=O)C2OC(C)=O)cc1 (stereo not given)	3.2
CCCCCCC(Nc1ccc([N+](=O)[O-])cc1[N+](=O)[O-])C(=O)O (stereo not given)	4.2
O=c1cc(CBr)oc(Br)c1O	1.27
COc1ccc(C2Cc3cc(OC(F)F)ccc3N(CCN(C)C)C(=O)C2OC(C)=O)cc1 (stereo not given)	3.8
NC(=O)c1cc(OCCNCC(O)CON=C(C2CC2)C2CC2)ccc1O (stereo not given)	1.69
CC(=O)c1ccc(Cl)cc1O	2.97
CCCCNC1CC(OC2CC(O)(C(=O)CO)Cc3c(O)c4c(c(O)c32)C(=O)c2c(OC)cccc2C4=O)OC(C)C1O (stereo not given)	2.12
ClCC1(C(Cl)Cl)C2C(Cl)CC1(C(Cl)Cl)C(Cl)C2Cl (stereo not given)	5.19
CCOC(=O)c1cccc(N(C)C)c1	3.19
C[C@]12CC[C@@H](O)C[C@@H]1CC[C@@H]1[C@@H]2CC[C@]2(C)[C@@H](O)CC[C@@H]12	4.16
Cc1cccc(Nc2ccncc2S(=O)(=O)NC(=NC#N)NC(C)C)c1	1.86
O=C1CCC(=O)N1c1c(Cl)cccc1Cl	0.57
COc1cc2c(cc1OC)C(C=Cc1ccccc1)=NCC2	3.39
CCC(C)C(NC(=O)C1CCCN1)C(=O)O (stereo not drawn) (H-Pro-Ile-OH; configuration not given here)	-2.56
C[N+](C)([O-])CCCC(c1ccccc1)c1ccccc1	1.45
Cc1ccc(CO)c(C=NNC(=O)c2cccc(Br)c2)c1O	3.91
Cn1c(N)nc2c3cccnc3ccc21	1.47
COC(=O)C(C)=CC1C(C(=O)OCc2cccc(OCc3ccccc3)c2)C1(C)C (stereo not given)	6.06
Clc1cc(Cl)c2c(c1)Oc1cc(Cl)c(Cl)c(Cl)c1O2	6.4

SMILES	logP
CC(C)CC(NC(=O)C(Cc1ccccc1)NC(=O)CNC(=O)C(NC(=O)C(N)Cc1ccc(O)cc1)C(C)O)C(=O)O (stereo not given) (H-YTGFL-OH; configuration not given here)	-1.18
CC(C)(C)Nc1nc(N)nc(Cl)n1	1.94
COC(=O)c1ccc(C(=O)OC)c(N)c1	2.28
NC(=O)c1cccc(Cc2ncccn2)c1	0.28
CC(=O)OC(C)(C)C1CCC2(C)CCCC3(CO3)C2C1 (stereo not given)	4.08
Cc1coc2nc3oc(=O)cc(C)c3cc12	1.64
C[C@@H]1CN(c2c(F)c(N)c3c(=O)c(C(=O)O)cn(C4CC4)c3c2F)C[C@H](C)N1	-0.02
CC(C)C(=O)OCC(=O)C1(O)C(C)CC2C3CCC4=CC(=O)C=CC4(C)C3(F)C(O)CC21C (stereo not given)	3.4
Cc1cc2c(ccc3c(C)c(C)c(=O)n(C)c32)o1	3.54
OC(CNCCCc1ccccc1)CON=C(C1CC1)C1CC1 (stereo not given)	2.56
CSCC[C@H](N)C(=O)N1CCC[C@H]1C(=O)O (H-Met-Pro-OH)	-2.52
Brc1ccc(Br)c(N=C2NCCN2)c1	2.71
CON(C)C(=O)Nc1ccc(NS(C)(=O)=O)cc1	0.14
CCCC(=NOCC)C1=C(O)CC2(CCC(CC(C)(C)C)CC2)OC1=O (stereo not given)	5.3
CC(C)(C)NCc1ccc(S(=O)(=O)c2csc(S(N)(=O)=O)c2)cc1	1.76
CCOC(=O)C1=C(C)NC(C)=C(C(=O)OC)C1c1cc(OC)c(O)c(OC)c1 (stereo not given)	2.83
CNC(=S)NN=C(c1cccc([N+](=O)[O-])c1)c1ccccn1	2.14
O=C(OC1Cc2c(O)cc(O)cc2OC1c1ccc(O)c(O)c1)c1ccc(O)c(O)c1 (stereo not given)	2.45
NC1=NCC(CN2CCOCC2)O1 (stereo not given)	-0.22
COC(=O)CCSc1ccc2nc(-c3ccc(N(C)C)cc3)cn2c1	3.9
CCNc1nc(O)nc(NCC)n1	2.29
CC(C)NC(=NC#N)NS(=O)(=O)c1cnccc1Nc1cccc(Br)c1	2.27

SMILES	logP
O=c1cc(CCl)occ1O	0.64
Clc1cc(-c2ccc(Cl)c(Cl)c2Cl)cc(Cl)c1Cl	7.6
Nc1nc(N)c2c(Cl)cccc2n1	1.72
Clc1cc(Cl)c(-c2c(Cl)ccc(Cl)c2Cl)c(Cl)c1	6.75
Cc1ccc2c(c1)C(=O)N(CCO[N+](=O)[O-])CO2	2.41
OCCCCCCCNc1ncnc2c1ncn2C1OC(CO)C(O)C1O (stereo not given)	0.68
O=C1CN=C(c2ccc(F)cc2)c2ccccc2N1	2.38
CCCCCCCOC(C)=O	3.46
O=C1C(O)N=C(c2ccccc2)c2cc([N+](=O)[O-])ccc2N1CCO (stereo not given)	0.72
Cc1cc(=O)oc2c(C)c3occc3cc12	2.82
O=C(O)CCCON=C(c1ccccc1)c1cncnc1	2.2
NC1=NCC(COc2ccccc2[N+](=O)[O-])O1 (stereo not given)	0.8
CC(NC(=O)C(Cc1ccccc1)NC(=O)C(N)Cc1c[nH]c2ccccc12)C(=O)O (stereo not drawn) (H-Trp-Phe-Ala-OH; configuration not given here)	-1
COC(=O)C(=Cc1ccccc1)S(=O)(=O)c1ccc([N+](=O)[O-])cc1	2.9
COC(=O)Cn1c(C)nc2ccccc2c1=O	1.46
NC(=O)C(CCCN1CC2CCC(CC2)C1)(c1ccccc1)c1ccccn1 (stereo not given)	2.88
Cc1ccc(Br)cc1F	3.64
CC(=O)Oc1ccccc1C(=O)OC1Cc2c(O)cc(O)cc2OC1c1ccc(O)c(O)c1 (stereo not given)	2.87
Cc1c(C)c2cc3c(C)coc3nc2oc1=O	2.25
COc1cc(OC)c(Cl)cc1N	1.45
CC(C)OC(=O)C(=Cc1ccccc1)S(=O)(=O)c1ccc(Cl)cc1	4.18
CC(C)NC(=NC#N)NS(=O)(=O)c1cnccc1Nc1cccc(Cl)c1	2.14

SMILES	logP
CCN(CC)CCSC(=NO)c1nc(Cc2ccccc2)no1	2.55
CC(=O)c1cccc(CNc2[nH]cnc3ncnc2-3)c1	1.73
Cc1nc2c3c(c(C(=O)N(C)C)cn2c1Br)CCC(c1ccccc1)O3 (stereo not given)	3.4
CC(C)OP(=O)(OC(C)C)C(Cl)(Cl)P(=O)(OC(C)C)OC(C)C	2.89
c1ccc(CCCc2ccccc2)cc1	3.43
COc1ccc(C(=O)N2CCN(c3ccc4c(c3)CCC(=O)N4)CC2)cc1OC	1.04
CC(C)CC(NC(=O)C(Cc1c[nH]c2ccccc12)NC(=O)C(N)Cc1c[nH]c2ccccc12)C(=O)O (stereo not drawn) (H-Trp-Trp-Leu-OH; configuration not given here)	0.36
CC(C)(C)[N+]([O-])=Cc1cccc([N+](=O)[O-])c1	1.3
O=C(NC1CCCCCCC1)NS(=O)(=O)c1cnccc1NC1CCCCC1	4.97
CC[C@H](C)C(=O)O[C@H]1C[C@H](O)C=C2C=C[C@H](C)[C@H](CC[C@@H](O)C[C@@H](O)CC(=O)O)[C@H]21	2.18
CCCCC(=O)OCC(=O)C1(O)Cc2c(O)c3c(c(O)c2C(OC2CC(N)C(O)C(C)O2)C1)C(=O)c1c(OC)cccc1C3=O (stereo not given)	2.56
Cc1nc2c3c(c(C(=O)O)cn2c1C)CCC(c1ccccc1)O3 (stereo not given)	4.6
CS(=O)(=O)c1cccc2nc(N)nc(N)c12	0.63
Cc1cccc(-n2nnnc2N)c1	1.24
Nc1ccc2cc3ccccc3nc2c1CO	1.77
c1ccc2c(c1)OCC(Cc1ncc[nH]1)O2 (stereo not given)	1.92
O=c1cc(CCl)oc(Br)c1O	1.08
CC(=O)NCCCCCN(O)C(=O)CCC(=O)NCCCCCN(O)C(=O)CCC(=O)NCCCCCN(O)C(C)=O	-0.03
Brc1cc2ccc3cccc4ccc(c1)c2c34	5.8
